Results taken from patent publication US20110206673A1, “POLYPEPTIDES AND POLYNUCLEOTIDES FOR ARTEMIN AND RELATED LIGANDS, AND METHODS OF USE THEREOF” (priority 2007, published 2011).

Experiments:
MCF-7 cells = experiment: Soft agar growth assay (96-well, MTT readout); assay type: cell-based, human
Experimental: To perform soft agar colony formation assays, 50 μl of 0.5% agarose in serum containing medium was plated onto each well of 96-well flat-bottom microplates, as a base agar layer. Next, 5×10^3 cells in a 100 μl mixture of 0.35% agarose in serum containing medium were plated onto the base layer. Subsequently, 100 μl of the medium was added to prevent drying of the agarose gels. For antibody treatment, the antibodies at the indicated concentrations were added into the top agar layer and the culture medium to ensure the complete exposure of cells to antibodies. The plates were incubated at 37° C. in a humidified incubator. The top culture medium including the antibodies was changed every 3 days. After 10 days, 20 μl of 5 mg/ml MTT (Sigma Chemical Company, St Louis, Mo., USA) was added into each well and incubated at 37° C. for 4 hours followed by adding 100 μl of acidified lysis buffer (0.01% HCl in 10% SDS). The plate was incubated at 42° C. to ensure a homogenous mixture. The plate was shaken briefly and then read at 595 nm (test wavelength) and 690 nm (reference wavelength) using the Synergy™ 2 Multi-Mode Microplate Reader (BioTek instruments, Inc., Vermont, USA).

[1] = tested on: MCF7-ARTN and MCF7-Vec cells; experiment: MTT assay of chemotherapy drug induced death; assay type: cell-based, human; conditions: 10% serum; both MCF7-ARTN and MCF7-Vec cells
Experimental: MTT (3-[4,5-dimethylthiazol-2-yl]-2,5-diphenyl tetrazolium bromide) assays were used measure cell proliferation. Cells were seeded into 96 well flat bottom tissue culture microplates in 100 μl RPMI-1640 culture medium containing 10% FBS at a concentration of 5×10^3 cells/well. On assay day, 10 μl of the MTT labelling reagent was added at a final concentration 0.5 mg/ml to each well and the cells were labelled for 5 h in the incubator. At the end of the incubation period, the media was removed and the converted dye was solubilised with 100 μl solubilising solution (0.01N HCl in 10% SDS in water). The plates were then sealed and placed at 37° C. overnight to completely solubilise the purple formazan crystals. The absorbance of the converted dye was measured using Spectra Max 250 multiplate reader at a wavelength of 570 nm with background subtraction at 650 nm. Each treatment was performed at least in triplicate.

[2] = tested on: MCF7-ARTN and MCF7-Vec cells; experiment: Soft agar colony formation in the presence of Tamoxifen (six-well); assay type: cell-based, human; conditions: 1 μM and 5 μM
Experimental: For soft agar colony formation assay, cells were cultured in 6-well plates first covered with a layer of agar (0.5%). Cells were grown in RPMI 1640 media containing 10% FBS. The middle layer included 5×10^3 cells in 0.35% agar in RPMI 1640 media containing 10% FBS. Media was added as the top layer to prevent drying of the agarose gels. The plates were incubated at 37° C. in a humidified incubator for 14 days. After this, cells were stained with 0.5 ml of 0.005% crystal violet in distilled water for 1 h and distained for 2 h in water. Colonies were inspected and photographed.

[3] = tested on: MCF-7 breast cancer cells; conditions: cited from earlier work

Row | Compound | soft agar growth compared with controls (MCF-7 cells; Faslodex (ICI 182,780) 100 nM alone) [%] | cell death (MTT viability) [1] | number of colonies formed in soft agar [2] | soft agar growth compared with controls (MCF-7 cells; Tamoxifen 1 μM alone) [%] | effect at lower concentrations ([3]; 0.1-1 μM) | effect at pharmacological concentrations ([3]; above 5 μM)
1 | C[C@]12CC[C@@H]3c4ccc(O)cc4C[C@@H](CCCCCCCCC[S+]([O-])CCCC(F)(F)C(F)(F)F)[C@H]3[C@@H]1CC[C@@H]2O (stereo partly drawn) [Faslodex, Faslodex (ICI 182,780)] | 55.8 | – | – | – | – | –
2 | CC/C(=C(\c1ccccc1)c1ccc(OCCN(C)C)cc1)c1ccccc1 [Tamoxifen] | – | caused cell death in a dose dependent manner | reduced the number of colonies | 40.4 | induce a cell-cycle arrest | induce apoptosis
